Patent US20210387964A1, “HETEROARYLAMINOQUINOLINES AND ANALOGUES” (Bayer Aktiengesellschaft, priority 2018, published 2021)

Assay: log P by HPLC on reversed-phase column (C 18), EEC Directive 79/831 Annex V.A8
Format: physicochemical
Details: not given
Description: In table 1, the log P values were determined in accordance with EEC Directive 79/831 Annex V.A8 by HPLC (High Performance Liquid Chromatography) on a reversed-phase column (C 18), using the method described below: […] If more than one Log P value is available within the same method, all the values are given and separated by “;”.

First: Cc1nc2ccccc2nc1Nc1cccnc1-c1ccnn1C [I.01]
Second: Cc1nc2ccccc2nc1Nc1ccsc1-c1ccnn1C [I.04]
The logP of the first is lower: 1.88 for the first, 2.47 for the second.

First: Cn1nccc1-c1ncccc1Nc1cnc2c(F)cccc2c1 [I.02]
Second: Cn1nccc1-c1ncccc1Nc1cnc2c(F)c(F)ccc2c1 [I.09]
The logP of the first is lower: 1.72 for the first, 1.93 for the second.

Compared with `Cc1c(Nc2ccsc2-c2ccnn2C)cnc2ccccc12` [I.03], `Cn1nccc1-c1sccc1Nc1cnc2ccccc2c1Cl` [I.12] is higher in logP: 1.39 for the first, 2.66 for the second.

First: Cn1nccc1-c1sccc1Nc1cnc2c(F)cccc2c1 [I.05]
Second: CCn1nccc1-c1sccc1Nc1cnc2c(F)cccc2c1 [I.11]
The logP of the first is lower: 2.49 for the first, 2.75 for the second.

Going from `CCn1nccc1-c1sccc1Nc1cnc2ccccc2c1C` [I.06] to `CCn1nccc1-c1sccc1Nc1cnc2ccccc2c1Cl` [I.20], the logP rises from 1.60 to 2.98.

First: CCn1nccc1-c1sccc1Nc1nc2ccccc2nc1C [I.07]
Second: CCn1nccc1-c1sccc1Nc1nc2ccc(F)c(F)c2nc1C [I.26]
The logP of the first is lower: 2.80 for the first, 3.27 for the second.

`Cn1nccc1-c1ncccc1Nc1cnc2ccccc2c1Cl` [I.08] and `Cn1nccc1-c1ncccc1Nc1cnc2c(F)c(F)ccc2n1` [I.10] are within 0.2 log units of each other in logP: 2.02 for the first, 2.13 for the second.

First: Cn1nccc1-c1sccc1Nc1cnc2c(F)c(F)ccc2n1 [I.14]
Second: CCn1nccc1-c1sccc1Nc1cnc2c(F)c(F)ccc2n1 [I.23]
The logP of the first is lower: 2.94 for the first, 3.29 for the second.

`Cc1nc2c(F)c(F)ccc2cc1Cc1cccnc1-c1ccnn1C` [I.15] and `Cc1nc2c(F)c(F)ccc2cc1Nc1cccnc1-c1ccnn1C` [I.16] are within 0.2 log units of each other in logP: 2.17 for the first, 2.04 for the second.

Compared with `Cc1nc2c(F)c(F)ccc2nc1Nc1cccnc1-c1ccnn1C` [I.17], `Cc1nc2c(F)c(F)ccc2nc1Nc1cncnc1-c1ccnn1C` [I.19] is lower in logP: 2.23 for the first, 2.00 for the second.

Going from `Cc1nc2c(F)c(F)ccc2cc1Cc1cccnc1-c1ccsc1` [I.18] to `Cc1nc2c(F)c(F)ccc2cc1Cc1cscc1-c1ccsc1` [I.39], the logP rises from 2.05 to 4.47.

Going from `Cc1nc2c(F)c(F)ccc2cc1Nc1ccsc1-c1ccnn1C` [I.21] to `CCn1nccc1-c1sccc1Nc1cc2ccc(F)c(F)c2nc1C` [I.25], the logP rises from 2.74 to 3.11.

`CCn1nccc1-c1sccc1Nc1cnc2c(F)c(F)ccc2c1` [I.22] and `Cc1nc2c(F)c(F)ccc2nc1Nc1ccsc1-c1ccnn1C` [I.24] are within 0.2 log units of each other in logP: 2.92 for the first, 2.90 for the second.

First: CCCn1nccc1-c1cnccc1Nc1nc2ccc(F)c(F)c2nc1C [I.27]
Second: CCCn1nccc1-c1c(Nc2nc3ccc(F)c(F)c3nc2C)cncc1OC [I.33]
The logP of the first is lower: 2.33 for the first, 2.64 for the second.

Going from `CCn1nccc1-c1c(F)cncc1Nc1cc2ccc(F)c(F)c2nc1C` [I.28] to `CCCn1nccc1-c1c(F)cncc1Nc1cc2ccc(F)c(F)c2nc1C` [I.31], the logP rises from 2.60 to 2.86.

First: CCn1nccc1-c1c(Nc2nc3ccc(F)c(F)c3nc2C)cncc1OC [I.30]
Second: CCn1nccc1-c1c(Cl)cncc1Nc1nc2ccc(F)c(F)c2nc1C [I.32]
The logP of the first is lower: 2.28 for the first, 3.06 for the second.

Compared with `CCCn1nccc1-c1c(Nc2cc3ccc(F)c(F)c3nc2C)ccnc1Cl` [I.34], `CCCn1nccc1-c1c(Cl)cncc1Nc1cc2ccc(F)c(F)c2nc1C` [I.46] is higher in logP: 2.82 for the first, 3.20 for the second.

First: Cn1nccc1-c1cscc1Cc1cnc2c(F)cccc2c1 [I.36]
Second: Fc1cccc2cc(Cc3cscc3-c3ccsc3)cnc12 [I.37]
The logP of the first is lower: 2.49 for the first, 3.77 for the second.

`CCCn1nccc1-c1c(C)cncc1Nc1cc2ccc(F)c(F)c2nc1C` [I.40] and `CCCn1nccc1-c1c(Nc2cc3ccc(F)c(F)c3nc2C)cncc1OC` [I.45] are within 0.2 log units of each other in logP: 2.11 for the first, 2.30 for the second.

Compared with `CCn1nccc1-c1c(F)cncc1Nc1cc2ccc(F)c(OC)c2nc1C` [I.41], `CCCn1nccc1-c1c(F)cncc1Nc1cc2ccc(F)c(OC)c2nc1C` [I.44] is higher in logP: 2.22 for the first, 2.51 for the second.

First: CCn1nccc1-c1c(Nc2cc3ccc(F)c(F)c3nc2C)cncc1OC [I.42]
Second: CCn1nccc1-c1c(Cl)cncc1Nc1cc2ccc(F)c(F)c2nc1C [I.43]
The logP of the first is lower: 2.06 for the first, 2.86 for the second.

Going from `CCOCn1nccc1-c1ccsc1Cc1cnc2c(F)cccc2c1` [I.47] to `CCOCn1nccc1-c1ccsc1Cc1cc2ccc(F)c(F)c2nc1C` [I.48], the logP rises from 3.10 to 3.64.

Going from `Cc1nc2c(F)c(F)ccc2cc1Cc1cccnc1Br` [IIa.01] to `Cc1nc2c(F)c(F)ccc2cc1Cc1sccc1Br` [IIg.02], the logP rises from 2.92 to 4.19.

Compared with `CS(=O)(=O)N(c1cnc2c(F)cccc2c1)c1cccnc1Cl` [IIa.02], `Fc1cccc2cc(Cc3cscc3Br)cnc12` [IIf.01] is higher in logP: 2.07 for the first, 3.36 for the second.

Going from `Cc1nc2c(F)c(F)ccc2nc1Nc1cnccc1Cl` [IIc.01] to `Cc1nc2c(F)c(F)ccc2cc1Nc1cncc(F)c1I` [IIc.02], the logP rises from 2.41 to 2.94.

Compound `Fc1cccc2cc(Cc3sccc3Br)cnc12` [IIg.01] has a logP of 3.50.

Compared with `Cn1nccc1-c1sccc1Nc1cnc2c(F)c(F)ccc2c1` [I.13, 7,8-difluoro-N-[2-(1-methyl-1H-pyrazol-5-yl)-3-thienyl]quinolin-3-amine], `Cc1nc2c(F)c(F)ccc2cc1Nc1ccnc(Cl)c1-c1ccnn1C` [I.29, N-[2-chloro-3-(1-methyl-1H-pyrazol-5-yl)pyridin-4-yl]-7,8-difluoro-2-methylquinolin-3-amine] is lower in chromatographic logP: 2.71 for the first, 2.27 for the second.

Compared with `CCCn1nccc1-c1c(Cl)cncc1Nc1nc2ccc(F)c(F)c2nc1C` [I.35, N-[5-chloro-4-(1-propyl-1H-pyrazol-5-yl)pyridin-3-yl]-5,6-difluoro-3-methylquinoxalin-2-amine], `CCCn1nccc1-c1c(N)cncc1Cl` [XIc.05, 5-chloro-4-(1-propyl-1H-pyrazol-5-yl)pyridin-3-amine] is lower in chromatographic logP: 3.44 for the first, 1.64 for the second.

Compared with `Cc1nc2c(F)c(F)ccc2cc1Cc1cscc1-c1ccnn1C` [I.38, 7,8-difluoro-2-methyl-3-{[4-(1-methyl-1H-pyrazol-5-yl)-3-thienyl]methyl}quinoline], `Cc1nc2c(F)c(F)ccc2cc1Cc1cscc1Br` [IIf.02, 3-[(4-bromo-3-thienyl)methyl]-7,8-difluoro-2-methylquinoline] is higher in chromatographic logP: 3.01 for the first, 4 for the second.

First: CCn1nccc1-c1ccncc1Cl [IXc.01, 3-chloro-4-(1-ethyl-1H-pyrazol-5-yl)pyridine]
Second: CCCn1nccc1-c1ccncc1N [XIc.01, 4-(1-propyl-1H-pyrazol-5-yl)pyridin-3-amine]
The chromatographic logP of the first is higher: 1.73 for the first, 0.11 for the second.

First: Cn1nccc1-c1sccc1Br [IXe.01, 5-(3-bromo-2-thienyl)-1-methyl-1H-pyrazole]
Second: CCn1nccc1-c1sccc1Br [IXe.02, 5-(3-bromo-2-thienyl)-1-ethyl-1H-pyrazole]
The chromatographic logP of the first is lower: 2.29 for the first, 2.72 for the second.

Going from `CCn1nccc1-c1c(N)cncc1OC` [XIc.02, 4-(1-ethyl-1H-pyrazol-5-yl)-5-methoxypyridin-3-amine] to `CCCn1nccc1-c1c(N)cncc1OC` [XIc.04, 5-methoxy-4-(1-propyl-1H-pyrazol-5-yl)pyridin-3-amine], the chromatographic logP rises from 0.08 to 0.45.

Work on `CCn1nccc1-c1c(N)cncc1Cl` [XIc.03, 5-chloro-4-(1-ethyl-1H-pyrazol-5-yl)pyridin-3-amine] yielded a chromatographic logP of 1.3.

Same assay, conditions: HPLC, reversed-phase C 18, 40° C., 0.1% aqueous formic acid and acetonitrile, gradient 10% to 95% acetonitrile

Work on “3-bromo-2-(1-methyl-1H-pyrazol-5-yl)pyridine [IXa.01]” yielded a logP of 1.53.
